In the test the test system is HFE−/− mice. As to the kind of experiment: Liver iron concentrations, TMPRSS6 siRNA with or without Deferiprone, HFE−/− mice. The test is classed as in vivo, mouse. The following applies: 3 mg/kg siRNA conjugate s.c. Day 1 or Day 1 and 22, Deferiprone 0.5 mg/ml in drinking water, Day 43. On the procedure: Three months old C57BL6/J congenic female HFE knock-out mice (−/−) and three months old female C57BL6/J wild type mice (+/+) were used in this study (Herrmann et al., Mol. Med, 2004. 82 (1): p1-3). HFE−/− mice (n=8) were treated on Day 1 (1×) or on Day 1 and on Day 22 (2×) subcutaneously with either PBS (PBS) or 3 mg/kg TMPRSS6 siRNA conjugate (TMP) or 3 mg/kg non-targeting siRNA conjugate (Luc). In addition, cohort 7 to 10 received Deferiprone supplied in drinking water at a concentration of 0.5 mg/ml. Cohorts 1 and 2 were terminated on Day 1 (Predose) all other cohorts on Day 43 (6 weeks after start of the treatment) to collect serum and tissue samples for analyses. Treatment with TMPRSS6 siRNAs enhances the reduction of tissue iron levels by iron chelator. 3 months old HFE−/− (rodent model for hereditary hemochromatosis and iron overload) or wild type mice were used for this study and treated as described in Example 46. Liver tissue samples were collected to assess liver iron concentrations before start of the treatment (predose) and at the end of the study at Day 43 (6 weeks after start of treatments). Liver tissue samples were dried and iron concentrations from dry weights were determined by acid extraction method. At the start of the study liver iron levels were already elevated in HFE−/− compared to wild type control mice (Predose). […]

The source of these data is patent publication US20250025488A1, “NUCLEIC ACIDS FOR INHIBITING EXPRESSION OF TMPRSS6 AND IRON CHELATORS” (SILENCE THERAPEUTICS GMBH, priority 2018, published 2025).

`Cc1c(O)c(=O)ccn1C` [Deferiprone]: the Liver iron content result is given as “little to no effect on the liver iron content”.
